# ChEMBL document CHEMBL4507311, “Data for DCP probe A-1155463” (2021)
# Experiments:
# Histamine H3 receptor = Histamine H3 receptor (Homo sapiens, UniProt Q9Y5N1); experiment: GPCRScan assay: inhibition of H3; parameters: radioligand conc. used [nm] 0.5 – 1.0, parental cells HEK Flp-In
# [1] = biological target: Sigma intracellular receptor 2 (Homo sapiens, UniProt Q5BJF2); experiment: GPCRScan assay: inhibition of Sigma 2; parameters: radioligand conc. used [nm] 5.0, parental cells HEKT
# [2] = system: Tyrosine-protein kinase ABL1 (Homo sapiens), P00519 [M351T]; details: Compound concentration 1000.0 nM
# [3] = system: Tyrosine-protein kinase ABL1 (Homo sapiens), P00519 [Q252H]; details: Compound concentration 1000.0 nM
# [4] = biological target: RAC-alpha serine/threonine-protein kinase (Homo sapiens) (UniProt P31749); details: Compound concentration 1000.0 nM
# [5] = biological target: Calcium/calmodulin-dependent protein kinase type II subunit alpha (Homo sapiens) (UniProt Q9UQM7); details: Compound concentration 1000.0 nM
# [6] = biological target: Calcium/calmodulin-dependent protein kinase type II subunit beta (Homo sapiens) (UniProt Q13554); details: Compound concentration 1000.0 nM
# [7] = biological target: Cyclin-dependent kinase 4 (Homo sapiens) (UniProt P11802); details: Compound concentration 1000.0 nM
# [8] = biological target: Death-associated protein kinase 1 (Homo sapiens) (UniProt P53355); details: Compound concentration 1000.0 nM
# [9] = biological target: Serine/threonine-protein kinase 17B (Homo sapiens) (UniProt O94768); details: Compound concentration 1000.0 nM
# [10] = biological target: Dual specificity tyrosine-phosphorylation-regulated kinase 1B (Homo sapiens) (UniProt Q9Y463); details: Compound concentration 1000.0 nM
# [11] = biological target: Receptor-type tyrosine-protein kinase FLT3 (Homo sapiens) (UniProt P36888); details: Compound concentration 1000.0 nM
# [12] = biological target: Serine/threonine-protein kinase 10 (Homo sapiens) (UniProt O94804); details: Compound concentration 1000.0 nM
# [13] = biological target: Mitogen-activated protein kinase kinase kinase kinase 5 (Homo sapiens) (UniProt Q9Y4K4); details: Compound concentration 1000.0 nM
# [14] = biological target: MAP kinase-interacting serine/threonine-protein kinase 1 (Homo sapiens) (UniProt Q9BUB5); details: Compound concentration 1000.0 nM
# [15] = biological target: 3-phosphoinositide-dependent protein kinase 1 (Homo sapiens) (UniProt O15530); details: Compound concentration 1000.0 nM
# [16] = biological target: Cyclin-dependent kinase 15 (Homo sapiens) (UniProt Q96Q40); details: Compound concentration 1000.0 nM
# [17] = biological target: Phosphatidylinositol 4,5-bisphosphate 3-kinase catalytic subunit beta isoform (Homo sapiens) (UniProt P42338); details: Compound concentration 1000.0 nM
# [18] = biological target: Serine/threonine-protein kinase pim-3 (Homo sapiens) (UniProt Q86V86); details: Compound concentration 1000.0 nM
# [19] = biological target: Protein kinase C epsilon type (Homo sapiens) (UniProt Q02156); details: Compound concentration 1000.0 nM
# [20] = biological target: cGMP-dependent protein kinase 1 (Homo sapiens) (UniProt Q13976); details: Compound concentration 1000.0 nM
# [21] = biological target: Serine/threonine-protein kinase PRP4 homolog (Homo sapiens) (UniProt Q13523); details: Compound concentration 1000.0 nM
# [22] = system: Proto-oncogene tyrosine-protein kinase receptor Ret (Homo sapiens), P07949 [V804M]; details: Compound concentration 1000.0 nM
# [23] = biological target: STE20/SPS1-related proline-alanine-rich protein kinase (Homo sapiens) (UniProt Q9UEW8); details: Compound concentration 1000.0 nM
# [24] = biological target: High affinity nerve growth factor receptor (Homo sapiens) (UniProt P04629); details: Compound concentration 1000.0 nM
# [25] = biological target: Serine/threonine-protein kinase VRK2 (Homo sapiens) (UniProt Q86Y07); details: Compound concentration 1000.0 nM
# [26] = biological target: Wee1-like protein kinase 2 (Homo sapiens) (UniProt P0C1S8); details: Compound concentration 1000.0 nM
# [27] = biological target: Mitogen-activated protein kinase kinase kinase 20 (Homo sapiens) (UniProt Q9NYL2); details: Compound concentration 1000.0 nM
# [28] = biological target: Sodium-dependent serotonin transporter (Homo sapiens) (UniProt P31645); details: Compound concentration 10.0 uM
# [29] = biological target: T1, Alpha-2B adrenergic receptor (Homo sapiens) (UniProt P18089); details: Compound concentration 10.0 uM
# T1 sequence (whole entry): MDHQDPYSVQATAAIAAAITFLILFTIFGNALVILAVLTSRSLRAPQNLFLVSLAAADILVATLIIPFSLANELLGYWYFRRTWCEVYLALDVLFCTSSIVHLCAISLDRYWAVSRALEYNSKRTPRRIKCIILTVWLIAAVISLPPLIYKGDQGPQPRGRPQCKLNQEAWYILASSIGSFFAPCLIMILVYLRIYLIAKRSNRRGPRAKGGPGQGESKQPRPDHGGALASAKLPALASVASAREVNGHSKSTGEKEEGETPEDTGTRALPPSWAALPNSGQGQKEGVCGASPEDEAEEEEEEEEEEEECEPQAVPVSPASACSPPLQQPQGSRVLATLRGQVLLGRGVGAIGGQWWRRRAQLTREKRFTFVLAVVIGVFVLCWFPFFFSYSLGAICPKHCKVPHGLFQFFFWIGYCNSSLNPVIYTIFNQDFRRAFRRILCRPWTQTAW
# [30] = biological target: Alpha-2C adrenergic receptor (Homo sapiens) (UniProt P18825); details: Compound concentration 10.0 uM
# [31] = biological target: T2, Muscarinic acetylcholine receptor M5 (Homo sapiens) (UniProt P08912); details: Compound concentration 10.0 uM
# T2 sequence (whole entry): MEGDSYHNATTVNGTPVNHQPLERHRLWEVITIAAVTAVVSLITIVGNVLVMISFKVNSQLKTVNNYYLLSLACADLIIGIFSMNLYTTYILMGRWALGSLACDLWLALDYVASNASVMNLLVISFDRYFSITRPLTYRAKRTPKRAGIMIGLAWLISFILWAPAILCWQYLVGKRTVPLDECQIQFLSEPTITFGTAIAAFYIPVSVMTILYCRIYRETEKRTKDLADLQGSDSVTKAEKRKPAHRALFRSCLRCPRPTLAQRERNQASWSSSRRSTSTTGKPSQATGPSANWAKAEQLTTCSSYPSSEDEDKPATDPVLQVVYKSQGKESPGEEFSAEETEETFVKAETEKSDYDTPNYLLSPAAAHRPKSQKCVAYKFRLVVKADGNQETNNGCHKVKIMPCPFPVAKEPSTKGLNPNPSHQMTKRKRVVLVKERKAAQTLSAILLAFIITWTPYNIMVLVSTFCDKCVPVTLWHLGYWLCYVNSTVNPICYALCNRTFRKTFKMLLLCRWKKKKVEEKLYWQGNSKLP
# Mitogen-activated protein kinase kinase kinase 20 (Homo sapiens), sequence (Q9NYL2 2-800 limits assumed): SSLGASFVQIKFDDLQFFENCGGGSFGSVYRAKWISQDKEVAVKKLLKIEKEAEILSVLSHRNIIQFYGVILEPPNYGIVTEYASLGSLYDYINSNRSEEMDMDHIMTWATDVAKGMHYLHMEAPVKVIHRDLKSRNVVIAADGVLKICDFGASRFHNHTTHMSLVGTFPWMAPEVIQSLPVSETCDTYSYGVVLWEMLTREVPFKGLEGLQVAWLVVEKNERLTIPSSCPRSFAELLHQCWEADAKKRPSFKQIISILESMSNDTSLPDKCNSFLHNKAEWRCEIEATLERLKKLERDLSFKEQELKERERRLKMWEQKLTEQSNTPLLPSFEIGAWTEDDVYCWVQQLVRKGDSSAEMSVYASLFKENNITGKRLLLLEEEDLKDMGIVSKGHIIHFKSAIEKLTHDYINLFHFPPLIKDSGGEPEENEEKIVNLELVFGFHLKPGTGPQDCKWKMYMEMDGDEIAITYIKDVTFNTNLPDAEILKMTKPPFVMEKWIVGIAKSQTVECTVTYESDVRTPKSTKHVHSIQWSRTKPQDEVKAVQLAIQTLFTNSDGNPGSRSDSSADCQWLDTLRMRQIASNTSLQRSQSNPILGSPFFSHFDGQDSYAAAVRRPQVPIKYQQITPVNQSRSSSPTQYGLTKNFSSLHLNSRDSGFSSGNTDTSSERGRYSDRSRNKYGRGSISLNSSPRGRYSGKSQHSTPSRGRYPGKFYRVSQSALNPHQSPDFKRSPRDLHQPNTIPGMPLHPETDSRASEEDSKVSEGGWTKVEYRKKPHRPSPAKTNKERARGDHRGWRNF
# Protein kinase C epsilon type (Homo sapiens), sequence (Q02156 whole entry): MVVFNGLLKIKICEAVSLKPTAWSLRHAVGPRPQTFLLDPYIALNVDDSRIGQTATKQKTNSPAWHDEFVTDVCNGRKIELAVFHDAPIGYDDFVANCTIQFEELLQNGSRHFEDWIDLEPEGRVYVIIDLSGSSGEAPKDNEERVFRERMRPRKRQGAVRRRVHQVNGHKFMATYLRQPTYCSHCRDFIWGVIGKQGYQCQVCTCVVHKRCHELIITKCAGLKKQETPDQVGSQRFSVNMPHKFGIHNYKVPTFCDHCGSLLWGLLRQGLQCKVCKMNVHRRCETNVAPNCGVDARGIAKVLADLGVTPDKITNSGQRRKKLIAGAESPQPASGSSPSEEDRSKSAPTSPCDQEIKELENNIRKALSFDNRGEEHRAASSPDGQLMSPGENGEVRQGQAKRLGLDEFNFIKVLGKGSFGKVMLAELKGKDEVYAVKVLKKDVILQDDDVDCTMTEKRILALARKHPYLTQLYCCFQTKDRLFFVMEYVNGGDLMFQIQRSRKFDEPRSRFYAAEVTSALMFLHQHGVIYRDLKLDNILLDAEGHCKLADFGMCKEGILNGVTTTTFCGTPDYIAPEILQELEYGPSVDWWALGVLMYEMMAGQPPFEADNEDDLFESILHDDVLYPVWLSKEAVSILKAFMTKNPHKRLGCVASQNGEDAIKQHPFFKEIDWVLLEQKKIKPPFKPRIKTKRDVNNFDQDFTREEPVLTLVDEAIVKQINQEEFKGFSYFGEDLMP
# Histamine H3 receptor, sequence (Q9Y5N1 whole entry): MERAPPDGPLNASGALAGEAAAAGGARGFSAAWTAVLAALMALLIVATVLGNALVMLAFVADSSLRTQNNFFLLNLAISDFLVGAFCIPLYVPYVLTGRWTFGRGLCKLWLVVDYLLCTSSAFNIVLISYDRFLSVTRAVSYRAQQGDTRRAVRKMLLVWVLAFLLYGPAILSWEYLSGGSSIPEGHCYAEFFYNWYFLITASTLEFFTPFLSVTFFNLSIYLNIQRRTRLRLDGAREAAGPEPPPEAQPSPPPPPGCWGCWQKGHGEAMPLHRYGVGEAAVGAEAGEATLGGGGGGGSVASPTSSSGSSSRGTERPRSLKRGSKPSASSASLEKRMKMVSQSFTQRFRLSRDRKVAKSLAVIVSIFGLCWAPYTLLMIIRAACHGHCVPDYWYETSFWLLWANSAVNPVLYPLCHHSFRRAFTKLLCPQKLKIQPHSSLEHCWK
# cGMP-dependent protein kinase 1 (Homo sapiens), sequence (Q13976 whole entry): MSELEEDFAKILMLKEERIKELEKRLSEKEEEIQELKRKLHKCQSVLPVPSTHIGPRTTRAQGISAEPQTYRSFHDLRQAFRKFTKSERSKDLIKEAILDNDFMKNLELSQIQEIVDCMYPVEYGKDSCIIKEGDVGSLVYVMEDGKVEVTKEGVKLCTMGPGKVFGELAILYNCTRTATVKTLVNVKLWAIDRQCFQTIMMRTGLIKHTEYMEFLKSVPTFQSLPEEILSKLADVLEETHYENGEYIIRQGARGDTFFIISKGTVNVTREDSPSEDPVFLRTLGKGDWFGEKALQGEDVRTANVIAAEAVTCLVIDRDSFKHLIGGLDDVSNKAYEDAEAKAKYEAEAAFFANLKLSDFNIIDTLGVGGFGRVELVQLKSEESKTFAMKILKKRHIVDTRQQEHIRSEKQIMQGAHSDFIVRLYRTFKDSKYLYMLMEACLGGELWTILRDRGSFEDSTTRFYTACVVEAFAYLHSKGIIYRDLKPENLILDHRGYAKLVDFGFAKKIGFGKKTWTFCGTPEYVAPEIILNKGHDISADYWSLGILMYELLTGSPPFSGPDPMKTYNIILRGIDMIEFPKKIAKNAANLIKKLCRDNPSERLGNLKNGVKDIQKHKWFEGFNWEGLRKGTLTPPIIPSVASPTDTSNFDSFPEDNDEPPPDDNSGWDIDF
# 3-phosphoinositide-dependent protein kinase 1 (Homo sapiens), sequence (O15530 whole entry): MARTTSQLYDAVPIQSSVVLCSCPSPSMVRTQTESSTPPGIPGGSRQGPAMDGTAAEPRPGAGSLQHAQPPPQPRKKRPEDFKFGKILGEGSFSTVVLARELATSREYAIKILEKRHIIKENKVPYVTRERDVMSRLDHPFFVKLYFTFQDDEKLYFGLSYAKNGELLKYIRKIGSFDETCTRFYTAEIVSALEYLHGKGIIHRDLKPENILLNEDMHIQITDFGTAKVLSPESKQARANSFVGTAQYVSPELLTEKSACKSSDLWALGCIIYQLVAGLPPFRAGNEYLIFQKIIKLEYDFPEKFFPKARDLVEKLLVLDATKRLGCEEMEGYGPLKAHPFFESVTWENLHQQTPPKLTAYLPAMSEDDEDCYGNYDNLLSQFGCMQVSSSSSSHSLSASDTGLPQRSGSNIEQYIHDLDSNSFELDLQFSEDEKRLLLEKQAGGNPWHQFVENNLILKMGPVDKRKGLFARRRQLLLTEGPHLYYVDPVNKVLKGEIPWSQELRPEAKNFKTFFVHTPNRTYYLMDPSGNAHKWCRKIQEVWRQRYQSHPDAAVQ
# Receptor-type tyrosine-protein kinase FLT3 (Homo sapiens), sequence (P36888 whole entry): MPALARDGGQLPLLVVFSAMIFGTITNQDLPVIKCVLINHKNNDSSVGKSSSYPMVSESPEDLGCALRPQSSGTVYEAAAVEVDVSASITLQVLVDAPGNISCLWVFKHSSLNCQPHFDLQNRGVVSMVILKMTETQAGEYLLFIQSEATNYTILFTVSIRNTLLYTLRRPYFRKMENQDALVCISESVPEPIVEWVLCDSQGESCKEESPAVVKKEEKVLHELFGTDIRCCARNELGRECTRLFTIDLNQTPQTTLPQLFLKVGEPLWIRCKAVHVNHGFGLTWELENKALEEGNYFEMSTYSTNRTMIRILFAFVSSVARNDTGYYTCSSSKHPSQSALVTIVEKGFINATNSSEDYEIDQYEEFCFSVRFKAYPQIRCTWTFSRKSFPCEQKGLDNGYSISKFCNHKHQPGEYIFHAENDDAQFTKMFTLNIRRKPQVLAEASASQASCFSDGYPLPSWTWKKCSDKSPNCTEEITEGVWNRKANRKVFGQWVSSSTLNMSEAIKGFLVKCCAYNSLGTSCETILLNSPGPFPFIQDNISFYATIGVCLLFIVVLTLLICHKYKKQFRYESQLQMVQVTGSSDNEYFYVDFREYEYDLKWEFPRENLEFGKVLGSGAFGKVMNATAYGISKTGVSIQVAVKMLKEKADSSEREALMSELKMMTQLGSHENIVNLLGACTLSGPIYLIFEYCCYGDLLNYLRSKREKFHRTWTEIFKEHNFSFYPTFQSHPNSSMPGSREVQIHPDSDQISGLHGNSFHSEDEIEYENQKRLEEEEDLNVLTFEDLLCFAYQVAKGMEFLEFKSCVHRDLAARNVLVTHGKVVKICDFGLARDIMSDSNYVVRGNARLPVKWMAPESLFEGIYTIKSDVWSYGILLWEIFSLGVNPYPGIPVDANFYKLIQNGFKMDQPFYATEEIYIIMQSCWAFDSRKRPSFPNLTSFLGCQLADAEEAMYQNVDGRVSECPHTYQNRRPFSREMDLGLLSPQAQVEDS
# Serine/threonine-protein kinase 17B (Homo sapiens), sequence (O94768 whole entry): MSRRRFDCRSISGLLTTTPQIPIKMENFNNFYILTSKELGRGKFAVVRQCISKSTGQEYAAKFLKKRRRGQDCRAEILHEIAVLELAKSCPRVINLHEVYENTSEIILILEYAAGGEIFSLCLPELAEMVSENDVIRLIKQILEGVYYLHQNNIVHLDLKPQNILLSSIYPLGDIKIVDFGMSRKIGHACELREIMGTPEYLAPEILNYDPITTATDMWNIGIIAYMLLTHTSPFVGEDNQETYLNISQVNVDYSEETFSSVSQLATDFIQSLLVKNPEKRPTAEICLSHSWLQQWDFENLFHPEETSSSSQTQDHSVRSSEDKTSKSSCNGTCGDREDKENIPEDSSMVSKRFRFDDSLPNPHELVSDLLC
# Sigma intracellular receptor 2, sequence (Q5BJF2 whole entry): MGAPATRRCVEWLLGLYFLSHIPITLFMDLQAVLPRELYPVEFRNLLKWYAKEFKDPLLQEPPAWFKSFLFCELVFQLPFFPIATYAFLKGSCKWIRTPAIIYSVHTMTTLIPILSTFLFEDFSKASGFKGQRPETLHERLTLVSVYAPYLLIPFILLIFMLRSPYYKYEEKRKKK
smiles,measurement,setting,value
CN(C)CC#Cc1ccc(OCCCc2sc(N3CCc4cccc(C(=O)Nc5nc6ccccc6s5)c4C3)nc2C(=O)O)c(F)c1 [A-1155463],Ki,Histamine H3 receptor,1810 nM
same,Ki,[1],806 nM
same,residual activity,[2],91%
same,residual activity,[3],88%
same,residual activity,[4],100%
same,residual activity,[5],64%
same,residual activity,[6],79%
same,residual activity,[7],100%
same,residual activity,[8],91%
same,residual activity,[9],72%
same,residual activity,[10],87%
same,residual activity,[11],80%
same,residual activity,[12],100%
same,residual activity,[13],91%
same,residual activity,[14],78%
same,residual activity,[15],100%
same,residual activity,[16],100%
same,residual activity,[17],100%
same,residual activity,[18],91%
same,residual activity,[19],100%
same,residual activity,[20],100%
same,residual activity,[21],100%
same,residual activity,[22],98%
same,residual activity,[23],100%
same,residual activity,[24],100%
same,residual activity,[25],100%
same,residual activity,[26],100%
same,residual activity,[27],100%
same,inhibition,[28],16.4%
same,inhibition,[29],17.2%
same,inhibition,[30],10.8%
same,inhibition,[31],12.6%
